# Columns and labels:
# crabgrass = assay: Test B pre/postemergence crabgrass; type: in vivo, Digitaria sanguinalis
# Method in brief: (§1)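 Test chemicals in a non-phytotoxic solvent mixture with surfactant were sprayed preemergence onto planted seeds and postemergence onto plants 2 to 18 cm tall (1- to 4-leaf stage). After twelve to sixteen days in a greenhouse, injury was visually rated against untreated controls from 0 (no effect) to 10 (complete control).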
# soybean = assay: Test B pre/postemergence soybean; type: in vivo, Glycine max
# Method in brief: as §1
# bedstraw = assay: Test B pre/postemergence bedstraw; type: in vivo, Galium aparine
# Method in brief: as §1
# corn = assay: Test B pre/postemergence corn; type: in vivo, Zea mays
# Method in brief: as §1
# cocklebur = assay: Test B pre/postemergence cocklebur; type: in vivo, Xanthium strumarium
# Method in brief: as §1
# surinam grass = assay: Test B pre/postemergence surinam grass; type: in vivo, Brachiaria decumbens
# Method in brief: as §1
# smallflower flatsedge = assay: Test B flood test smallflower flatsedge; type: in vivo, Cyperus difformis
# Method in brief: (§2)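 Read-out is a visual response score from 0 (no effect) to 10 (complete control), assigned by comparison with untreated controls. Treatment was applied at the 2-leaf stage, and plants stayed in the greenhouse for twelve to sixteen days before scoring.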
# velvetleaf = assay: Test B pre/postemergence velvetleaf; type: in vivo, Abutilon theophrasti; conditions: for Plant response rating, Velvetleaf: Rate 250 g/ha
# Method in brief: as §1
# wheat = assay: Test B pre/postemergence wheat; type: in vivo, Triticum aestivum; conditions: for Plant response rating, Wheat: Rate 250 g/ha
# Method in brief: as §1
# rape = assay: Test B pre/postemergence rape; type: in vivo, Brassica napus
# Method in brief: as §1
# pigweed = assay: Test B pre/postemergence pigweed; type: in vivo, Amaranthus retroflexus
# Method in brief: as §1
# bamyardgrass = assay: Test B flood test barnyardgrass; type: in vivo, Echinochloa crus-galli
# Method in brief: as §2
# sugar beet = assay: Test B pre/postemergence sugar beet; type: in vivo, Beta vulgaris; conditions: for Plant response rating, Sugarbeets: Rate 250 g/ha
# Method in brief: as §1
# wild oat = assay: Test B pre/postemergence wild oat; type: in vivo, Avena fatua; conditions: for Plant response rating, Wild oats: Rate 250 g/ha
# Method in brief: as §1
# purple nutsedge = assay: Test B pre/postemergence purple nutsedge; type: in vivo, Cyperus rotundus
# Method in brief: as §1
# blackgrass = assay: Test B pre/postemergence blackgrass; type: in vivo, Alopecurus myosuroides
# Method in brief: as §1
# [1] = Postemergence, Rate 125 g/ha, scale of 0 to 10 where 0 is no effect and 10 is complete control
# [2] = Postemergence, Rate 250 g/ha, scale 0 to 10, 0 no effect, 10 complete control
# [3] = Preemergence, Rate 62 g/ha, scale 0 to 10 (0 no effect, 10 complete control)
# [4] = Preemergence, Rate 125 g/ha, scale 0 to 10 (0 no effect, 10 complete control)
# [5] = Preemergence, Rate 250 g/ha, scale of 0 to 10 where 0 is no effect and 10 is complete control
# [6] = Preemergence, Rate 500 g/ha, scale 0 to 10 (0 no effect, 10 complete control)
# [7] = Rate 62 g/ha, Postemergence, scale of 0 to 10 where 0 is no effect and 10 is complete control
# [8] = Rate 500 g/ha, Postemergence, scale 0 to 10, 0 no effect, 10 complete control
# [9] = Rate 250 g/ha, Postemergence, scale 0 to 10, 0 is no effect, 10 is complete control
# [10] = Postemergence, Rate 62 g/ha, scale 0 to 10, 0 is no effect, 10 is complete control
# [11] = Rate 500 g/ha, listed under Postemergence (flood test species), scale 0 to 10, 0 no effect, 10 complete control
# [12] = Preemergence, Rate 125 g/ha, 0 is no effect, 10 is complete control
# [13] = Preemergence, scale of 0 to 10 where 0 is no effect and 10 is complete control
# [14] = Postemergence, scale 0 to 10, 0 is no effect, 10 is complete control
compound,measurement,setting,value
CC(C)N(C(=O)n1oc(=O)n(C2CCCCC2)c1=O)c1ccc(F)cc1 [Compound 110],Crabgrass plant response rating,crabgrass; [1],3
same,Crabgrass plant response rating,crabgrass; [2],3
same,Crabgrass plant response rating,crabgrass; [3],3
same,"Plant response rating, Crabgrass",crabgrass; [4],3
same,"Plant response rating, Crabgrass",crabgrass; [5],9
same,Crabgrass plant response rating,crabgrass; [6],10
same,Crabgrass plant response rating,crabgrass; [7],2
same,Crabgrass plant response rating,crabgrass; [8],8
same,Soybean plant response rating,soybean; [1],3
same,Soybean plant response rating,soybean; [3],1
same,"Plant response rating, Soybean",soybean; [4],5
same,"Plant response rating, Soybean",soybean; [5],5
same,Soybean plant response rating,soybean; [6],6
same,Soybean plant response rating,soybean; [7],3
same,"Plant response rating, Soybean",soybean; [9],5
same,Soybean plant response rating,soybean; [8],7
same,Bedstraw plant response rating,bedstraw; [10],2
same,Bedstraw plant response rating,bedstraw; [2],8
same,Bedstraw plant response rating,bedstraw; [3],0
same,"Plant response rating, Bedstraw",bedstraw; [4],4
same,"Plant response rating, Bedstraw",bedstraw; [5],5
same,Bedstraw plant response rating,bedstraw; [6],7
same,Corn plant response rating,corn; [1],0
same,Corn plant response rating,corn; [2],0
same,Corn plant response rating,corn; [3],2
same,"Plant response rating, Corn",corn; [4],3
same,"Plant response rating, Corn",corn; [5],4
same,Corn plant response rating,corn; [6],4
same,Corn plant response rating,corn; [7],0
same,Corn plant response rating,corn; [8],4
same,Cocklebur plant response rating,cocklebur; [1],2
same,Cocklebur plant response rating,cocklebur; [2],2
same,Cocklebur plant response rating,cocklebur; [3],0
same,"Plant response rating, Cocklebur",cocklebur; [4],0
same,"Plant response rating, Cocklebur",cocklebur; [5],0
same,Cocklebur plant response rating,cocklebur; [6],0
same,Cocklebur plant response rating,cocklebur; [7],0
same,Cocklebur plant response rating,cocklebur; [8],3
same,B. signalgrass plant response rating,surinam grass; [10],0
same,B. signalgrass plant response rating,surinam grass; [2],0
same,B. signalgrass plant response rating,surinam grass; [3],3
same,"Plant response rating, B. signalgrass",surinam grass; [4],7
same,B. signalgrass plant response rating,surinam grass; [6],7
same,B. signalgrass plant response rating,"surinam grass; Rate 125 g/ha, Postemergence, scale 0 to 10, 0 no effect, 10 complete control",0
same,B. signalgrass plant response rating,"surinam grass; Rate 500 g/ha, Postemergence, scale of 0 to 10 where 0 is no effect and 10 is complete control",3
same,S. Flatsedge plant response rating,"smallflower flatsedge; Postemergence (flood test species), Rate 125 g/ha, scale of 0 to 10 where 0 is no effect and 10 is complete control",0
same,S. Flatsedge plant response rating,"smallflower flatsedge; Rate 62 g/ha, Postemergence section, flood test species, scale of 0 to 10 where 0 is no effect and 10 is complete control",0
same,"Plant response rating, S. Flatsedge","smallflower flatsedge; Rate 250 g/ha, Postemergence (flood test), scale 0 to 10, 0 is no effect, 10 is complete control",0
same,S. Flatsedge plant response rating,smallflower flatsedge; [11],0
same,Velvetleaf plant response rating,velvetleaf; [1],0
same,Velvetleaf plant response rating,velvetleaf; [3],0
same,Velvetleaf plant response rating (0 to 10 scale),velvetleaf; [12],5
same,"Plant response rating, Velvetleaf",velvetleaf; [13],5
same,Velvetleaf plant response rating,velvetleaf; [6],7
same,Velvetleaf plant response rating,velvetleaf; [7],0
same,"Plant response rating, Velvetleaf",velvetleaf; [14],1
same,Velvetleaf plant response rating,velvetleaf; [8],2
same,Wheat plant response rating,wheat; [1],0
same,Wheat plant response rating,wheat; [3],0
same,Wheat plant response rating (0 to 10 scale),wheat; [12],0
same,"Plant response rating, Wheat",wheat; [13],0
same,Wheat plant response rating,wheat; [6],3
same,Wheat plant response rating,wheat; [7],0
same,"Plant response rating, Wheat",wheat; [14],0
same,Wheat plant response rating,wheat; [8],1
same,Rape plant response rating,rape; [1],4
same,Rape plant response rating,rape; [2],4
same,Rape plant response rating,rape; [3],0
same,"Plant response rating, Rape",rape; [4],1
same,"Plant response rating, Rape",rape; [5],4
same,Rape plant response rating,rape; [6],8
same,Rape plant response rating,rape; [7],2
same,Rape plant response rating,rape; [8],6
same,Redroot pigweed plant response rating,pigweed; [1],4
same,Redroot pigweed plant response rating,pigweed; [3],3
same,"Plant response rating, Redroot pigweed",pigweed; [4],6
same,"Plant response rating, Redroot pigweed",pigweed; [5],7
same,Redroot pigweed plant response rating,pigweed; [6],8
same,Redroot pigweed plant response rating,pigweed; [7],3
same,"Plant response rating, Redroot pigweed",pigweed; [9],5
same,Redroot pigweed plant response rating,pigweed; [8],6
same,Barnyardgrass plant response rating,bamyardgrass; [10],0
same,Barnyardgrass plant response rating,"bamyardgrass; Rate 125 g/ha, Postemergence section (flood test species), scale 0 to 10, 0 no effect, 10 complete control",0
same,Barnyardgrass plant response rating,bamyardgrass; [11],0
same,Barnyardgrass plant response rating,"bamyardgrass; flood test, listed under Postemergence, Rate 250 g/ha, scale 0 to 10, 0 no effect, 10 complete control",0
same,Sugarbeets plant response rating,sugar beet; [1],3
same,Sugarbeets plant response rating,sugar beet; [3],0
same,Sugarbeets plant response rating (0 to 10 scale),sugar beet; [12],1
same,"Plant response rating, Sugarbeets",sugar beet; [13],2
same,Sugarbeets plant response rating,sugar beet; [6],5
same,Sugarbeets plant response rating,sugar beet; [7],0
same,"Plant response rating, Sugarbeets",sugar beet; [14],3
same,Sugarbeets plant response rating,sugar beet; [8],3
same,Wild oats plant response rating,wild oat; [1],0
same,Wild oats plant response rating,wild oat; [3],0
same,Wild oats plant response rating (0 to 10 scale),wild oat; [12],3
same,"Plant response rating, Wild oats",wild oat; [13],5
same,Wild oats plant response rating,wild oat; [6],5
same,Wild oats plant response rating,wild oat; [7],0
same,"Plant response rating, Wild oats",wild oat; [14],0
same,Wild oats plant response rating,wild oat; [8],2
same,Nutsedge plant response rating,purple nutsedge; [1],0
same,Nutsedge plant response rating,purple nutsedge; [2],0
same,Nutsedge plant response rating,purple nutsedge; [3],0
same,"Plant response rating, Nutsedge",purple nutsedge; [4],0
same,"Plant response rating, Nutsedge",purple nutsedge; [5],0
same,Nutsedge plant response rating,purple nutsedge; [6],0
same,Nutsedge plant response rating,purple nutsedge; [7],0
same,Nutsedge plant response rating,purple nutsedge; [8],0
same,Blackgrass plant response rating,blackgrass; [1],4
same,Blackgrass plant response rating,blackgrass; [2],4
same,Blackgrass plant response rating,blackgrass; [3],0
same,"Plant response rating, Blackgrass",blackgrass; [4],3
same,"Plant response rating, Blackgrass",blackgrass; [5],7
same,Blackgrass plant response rating,blackgrass; [6],7
same,Blackgrass plant response rating,blackgrass; [7],1
same,Blackgrass plant response rating,blackgrass; [8],8

# Reference: patent publication US6737383B1, “Herbicidal oxadiazolidines” (priority 1999, dated 2004)
